We go through twelve compounds from article PMC8260592 (Scientific Reports, 2021).

In brackets after ≈: the same amount, converted by molar mass. Entries after “also recorded” stand apart in the source; their conditions may differ. Read-outs that look alike come from different tables or passages of the source.

By IC50 is commonly meant the concentration that gives 50% inhibition. Broadly, the Ki is a measure of affinity in units of concentration, obtained from inhibition or displacement. In general, inhibition refers to the share of the control response that was lost under treatment.

Data set [1] concerns AChE. The following applies: cited from earlier work.
Data set [2] deals with T1, MAO-B (Homo sapiens, UniProt P27338).
T1 construct: purchased Sigma-Aldrich
T1 sequence (P27338 1-520): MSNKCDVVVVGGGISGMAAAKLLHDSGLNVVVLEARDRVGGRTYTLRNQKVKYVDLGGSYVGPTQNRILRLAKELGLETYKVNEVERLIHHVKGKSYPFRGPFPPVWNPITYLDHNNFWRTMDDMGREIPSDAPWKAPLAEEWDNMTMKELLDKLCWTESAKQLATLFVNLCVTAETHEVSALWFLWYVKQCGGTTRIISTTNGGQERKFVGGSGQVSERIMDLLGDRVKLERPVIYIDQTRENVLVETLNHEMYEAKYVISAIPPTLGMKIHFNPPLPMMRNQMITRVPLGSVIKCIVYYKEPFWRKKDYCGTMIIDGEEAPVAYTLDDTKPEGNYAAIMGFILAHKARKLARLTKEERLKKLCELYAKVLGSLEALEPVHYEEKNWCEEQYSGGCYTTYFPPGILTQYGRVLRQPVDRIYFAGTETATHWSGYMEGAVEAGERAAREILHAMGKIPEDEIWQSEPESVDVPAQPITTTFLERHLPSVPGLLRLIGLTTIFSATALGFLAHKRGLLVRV
Put plainly: Kinetics of MAO-B inhibition (Lineweaver-Burk and secondary plots). The format is biochemical. The method, then: (§1) Inhibitory patterns and Ki values were determined using Lineweaver–Burk (LB) plots and secondary plots of LB slopes.

In data set [3] the target is T2, AChE (Electrophorus electricus, UniProt O42275). Nature of the data set: Kinetics of AChE inhibition (Lineweaver-Burk and secondary plots). The class given is biochemical. The method, then: as §1
T2 sequence (O42275 24-633): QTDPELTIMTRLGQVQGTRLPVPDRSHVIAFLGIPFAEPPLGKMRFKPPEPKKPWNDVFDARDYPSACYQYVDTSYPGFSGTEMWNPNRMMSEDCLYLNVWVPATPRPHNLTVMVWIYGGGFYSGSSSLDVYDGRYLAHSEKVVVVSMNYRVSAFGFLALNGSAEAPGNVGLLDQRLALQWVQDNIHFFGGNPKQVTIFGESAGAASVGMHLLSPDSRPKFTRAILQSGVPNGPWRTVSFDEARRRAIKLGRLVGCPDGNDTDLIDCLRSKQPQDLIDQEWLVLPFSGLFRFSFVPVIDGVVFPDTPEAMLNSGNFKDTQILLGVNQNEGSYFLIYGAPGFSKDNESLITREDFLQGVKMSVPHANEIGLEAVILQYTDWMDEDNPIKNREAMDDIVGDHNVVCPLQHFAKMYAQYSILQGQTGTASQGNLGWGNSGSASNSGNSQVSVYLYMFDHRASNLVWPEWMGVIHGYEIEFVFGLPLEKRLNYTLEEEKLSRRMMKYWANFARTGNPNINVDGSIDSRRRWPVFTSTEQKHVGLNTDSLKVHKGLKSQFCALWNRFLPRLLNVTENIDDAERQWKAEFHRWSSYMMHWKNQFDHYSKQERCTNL
Substrate concentrations ranged from 0.05 to 1.0 mM. […] Initial reaction rates are expressed as increases in absorbance per min.

Data set [4] has as its target T1, MAO-B. Nature of the data set: Reversibility of MAO-B inhibition by dialysis. The class given is biochemical. The method, then: (§2) After preincubating three compounds or reference inhibitors with enzymes for 15 min, residual activities of undialyzed (AU) and dialyzed (AD) samples were expressed as percentages of those of non-inhibitor treated controls. Reversibilities were assessed using AU and AD values and compared with those of reference compounds.
(§3) After preincubating the compounds with enzymes for 15 min, the mixtures were dialyzed for 6 h with two buffer changes. Results are the averages of duplicate or triplicate experiments.

Data set [5] concerns the target T2, AChE. Nature of the data set: Reversibility of AChE inhibition by dialysis. The format is biochemical. The method, then:
as §2, §3

A further data set addresses T3, BChE (equine serum) (Equus caballus, UniProt P81908).
T3 construct: BChE (equine serum); purchased Sigma-Aldrich; host or cells: equine serum
Put plainly: biochemical. The following applies: for remaining activity at 10 µM: read-out: Residual activity at 10 µM (%) BChE. The method, then: (§4) AChE and BChE inhibitory activities were measured after preincubating enzymes with inhibitors for 15 min before adding substrates (ATCI and BTCI, respectively) and DTNB. AChE activities were assayed as previously described, with slight modification[21],[22]. […] MAO-A and MAO-B activities were determined using a continuous spectrophotometric method, as described previously[23],[24]. […] Reaction rates are expressed as changes in absorbance per min. […]

For data set [6], the target named is AChE (Type VI-S from Electrophorus electricus) (Electrophorus electricus, UniProt O42275). Put plainly: biochemical. The following applies: for SI: IC50 for BChE divided by IC50 for AChE; for remaining activity at 10 µM: read-out: Residual activity at 10 µM (%) AChE. The method, then: as §4
AChE (Type VI-S from Electrophorus electricus), sequence (O42275 24-633): as above
A further data set has as its target T4, Recombinant human MAO-A (Homo sapiens, UniProt P21397).
T4 construct: purchased Sigma-Aldrich
T4 sequence (P21397 1-527): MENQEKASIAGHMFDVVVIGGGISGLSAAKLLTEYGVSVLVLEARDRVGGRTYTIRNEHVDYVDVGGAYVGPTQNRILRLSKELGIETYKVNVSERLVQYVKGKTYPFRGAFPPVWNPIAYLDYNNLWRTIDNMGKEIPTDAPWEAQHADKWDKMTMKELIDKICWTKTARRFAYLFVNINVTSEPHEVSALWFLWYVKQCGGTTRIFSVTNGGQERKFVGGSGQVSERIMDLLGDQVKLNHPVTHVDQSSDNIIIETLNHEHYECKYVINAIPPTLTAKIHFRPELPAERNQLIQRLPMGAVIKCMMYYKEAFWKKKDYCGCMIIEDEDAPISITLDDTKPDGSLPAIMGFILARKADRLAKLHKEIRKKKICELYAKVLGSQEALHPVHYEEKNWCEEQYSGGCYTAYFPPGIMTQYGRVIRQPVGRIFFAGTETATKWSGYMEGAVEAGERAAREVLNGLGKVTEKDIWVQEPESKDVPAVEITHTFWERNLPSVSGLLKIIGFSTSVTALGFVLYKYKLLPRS
Nature of the data set: biochemical. The following applies: for IC50: read-out: IC50 (µM) MAO-A; for remaining activity at 10 µM: read-out: Residual activity at 10 µM (%) MAO-A. The method, then:
(§5) AChE and BChE inhibitory activities were measured after preincubating enzymes with inhibitors for 15 min before adding substrates (ATCI and BTCI, respectively) and DTNB. AChE activities were assayed as previously described, with slight modification[21],[22]. […] MAO-A and MAO-B activities were determined using a continuous spectrophotometric method, as described previously[23],[24]. […] Reaction rates are expressed as changes in absorbance per min.
as §1

The target of data set [7] is T1, MAO-B. Put plainly: biochemical. The following applies: for IC50: read-out: IC50 (µM) MAO-B; for remaining activity at 10 µM: read-out: Residual activity at 10 µM (%) MAO-B. The method, then:
as §5, §1

For the next data set, the target named is T5, BACE-1 (Homo sapiens, UniProt P56817).
T5 construct: purchased Sigma-Aldrich
T5 sequence (P56817 46-457): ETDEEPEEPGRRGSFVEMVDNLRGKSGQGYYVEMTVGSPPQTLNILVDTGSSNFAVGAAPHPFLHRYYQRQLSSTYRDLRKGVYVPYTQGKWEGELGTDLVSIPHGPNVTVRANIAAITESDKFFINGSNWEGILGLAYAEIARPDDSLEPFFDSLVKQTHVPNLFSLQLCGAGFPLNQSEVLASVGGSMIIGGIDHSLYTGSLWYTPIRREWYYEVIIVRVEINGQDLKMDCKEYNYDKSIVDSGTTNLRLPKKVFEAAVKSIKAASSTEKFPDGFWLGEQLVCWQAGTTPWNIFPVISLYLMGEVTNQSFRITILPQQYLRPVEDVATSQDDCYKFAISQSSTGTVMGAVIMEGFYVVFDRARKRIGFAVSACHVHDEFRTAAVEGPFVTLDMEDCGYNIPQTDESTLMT
Nature of the data set: BACE-1 activity detection kit (fluorescence). The format is biochemical. The following applies: read-out: Residual activity at 10 µM (%) BACE-1.

The test system of data set [8] is human acute promyelocytic leukemia (HL-60) cells. Put plainly: Cytotoxicity test, CCK-8 assay. The following applies: 50 µM, 24 h, CCK-8. The method, then:
(§6) Madin-Darby canine kidney (MDCK) cells and human acute promyelocytic leukemia (HL-60) cells were obtained from the Korean Cell Line Bank (Seoul, Korea). […] Cultures were maintained at 37 °C under 5% CO2, and media were changed every two days.
(§7) Cell viabilities were determined using the CCK-8 assay. Briefly, MDCK cells or HL-60 cells were resuspended at 1 × 10^5 or 3 × 10^5 cells/mL and suspensions (100 µL) were added to wells of a 96-well plate and incubated in 5% CO2 atmosphere at 37 °C for 24 h. After incubation, 100 µL of each medium was treated with compounds at 1, 3, 10, 30, or 50 µM and incubated in 5% CO2 at 37 °C for 24 h. CCK-8 (10 µL/well) was then added to 100 µL aliquots from each cell and incubated 2–4 h. Absorbances were measured at 450 nm using a microplate reader (Versamax, Molecular Devices, San Jose, CA, USA).
(§8) Both cell lines were treated with each compound (at 1, 3, 10, 30, or 50 µM) for 24 h. Culture supernatants were then removed and CCK-8 was added. […] Data are expressed as the means ± SDs of triplicate experiments.
In general terms: Tetrazolium assays rely on reduction of a dye to a coloured formazan, in cell work by metabolically active cells.

The subject of data set [9] is Madin-Darby canine kidney (MDCK) cells. Nature of the data set: Cytotoxicity test, CCK-8 assay. The following applies: 50 µM, 24 h, CCK-8. The method, then:
as §6, §7, §8

T3 sequence (P81908 whole entry): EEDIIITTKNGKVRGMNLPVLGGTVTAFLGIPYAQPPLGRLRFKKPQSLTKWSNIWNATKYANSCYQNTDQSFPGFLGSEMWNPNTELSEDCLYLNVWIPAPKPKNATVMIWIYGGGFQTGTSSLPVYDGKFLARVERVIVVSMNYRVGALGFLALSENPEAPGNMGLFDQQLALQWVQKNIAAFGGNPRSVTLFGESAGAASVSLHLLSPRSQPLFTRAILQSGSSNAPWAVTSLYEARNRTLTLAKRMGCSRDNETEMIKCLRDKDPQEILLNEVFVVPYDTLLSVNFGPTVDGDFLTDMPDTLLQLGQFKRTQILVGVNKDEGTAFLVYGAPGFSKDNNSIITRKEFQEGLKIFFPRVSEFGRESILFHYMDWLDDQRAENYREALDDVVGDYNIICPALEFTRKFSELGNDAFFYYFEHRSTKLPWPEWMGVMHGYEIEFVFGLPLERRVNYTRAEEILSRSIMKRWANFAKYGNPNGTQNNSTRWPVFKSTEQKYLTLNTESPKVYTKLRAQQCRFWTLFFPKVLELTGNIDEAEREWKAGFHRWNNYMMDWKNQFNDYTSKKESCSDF

On to heyneanol A, for which, in the data set with AChE [1] (ref 56), the IC50 is 1.66 µM.

For the compound `COc1cc(/C=C/C(=O)CC(=O)/C=C/c2ccc(O)c(OC)c2)ccc1O` [curcumin], in the data set on AChE [1] (ref 51), the 50% inhibitory concentration (IC50) was 23.5 µM.

Take `COc1cc2c(=O)oc3c(OC)c(O[C@@H]4O[C@@H](C)[C@H](O)[C@@H](O)[C@H]4O)cc4c(=O)oc(c1OC)c2c34` [Compound 3, 4′-O-(α-L-rhamnopyranosyl)-3,3′,4-tri-O-methylellagic acid]: the “Mode of MAO-B inhibition” value at MAO-B [2] (LB plots) is given as “competitive”. For the same compound, the Ki at MAO-B [2] (secondary plots of LB slopes, substrate 0.0375-0.6 mM, read-out: Ki for MAO-B) came to 2.25 ± 0.01 µM; at AChE [3] (secondary plots of LB slopes, substrate 0.05-1.0 mM, read-out: Ki for AChE), 5.37 ± 0.62 µM. For the same compound, the “Mode of AChE inhibition” value at AChE [3] (LB plots) is listed as “competitively; also recorded: competitive but partly mixed; also recorded: competitive but partially mixed”. Moreover, the “Reversibility of MAO-B inhibition” value on MAO-B [4] is reported as “reversible inhibitors”. Besides, the “Reversibility of AChE inhibition” value at AChE [5] was “reversibly; also recorded: reversible inhibitors”. The IC50 is > 40 µM against BChE (equine serum), 10.1 ± 0.4 µM in data set [6], > 40 µM on Recombinant human MAO-A and 7.27 ± 0.16 µM at MAO-B [7]. For the same compound, the remaining activity at 10 µM was determined as 83.3 ± 2.1% at BChE (equine serum); 55.4 ± 3.4% in data set [6]; 83 ± 6.3% on Recombinant human MAO-A; 43.2 ± 3.7% at MAO-B [7]; 99.7 ± 0.4% at BACE-1. In addition, in [6], the SI was > 4.0. The figures for the inhibition at 10 µM (in [6] (read-out: Inhibition of AChE); against MAO-B [7] (10 µM)) were ~50% and > 50%, respectively. Also, the HL-60 cell viability entry in [8] is “negligible effects; also recorded: non-toxic or slightly toxic”. Moreover, the MDCK cell viability result in data set [9] is recorded as “slightly or non-toxic; also recorded: negligible effects; also recorded: non-toxic or slightly toxic”.

For `COc1ccc2c3c1O[C@H]1C[C@@H](O)C=C[C@@]31CCN(C)C2` [galantamine], the IC50 in the data set on AChE [1] (ref 46) is […]. In the data set on AChE [1] (ref 47), the concentration for half-maximal inhibition (IC50) was […] and the “IC50 AChE” value was […].

`Oc1ccc([C@H]2c3c(O)cc(O)cc3[C@H]3c4c(cc(O)cc4[C@@H]2c2cc(/C=C/c4cc(O)cc5c4[C@H](c4cc(O)cc(O)c4)[C@@H](c4ccc(O)cc4)O5)ccc2O)O[C@@H]3c2ccc(O)cc2)cc1` [vitisin A]: the concentration for half-maximal inhibition (IC50) in the data set with AChE [1] (ref 56) was 1.04 µM.

On to `O=C(OCc1cc(O)c(O[C@@H]2O[C@H](CO)[C@@H](O)[C@H](O)[C@H]2O)c(O)c1)c1cc(O)c(O)c(Oc2c(C(=O)OCc3cc(O)c(O[C@@H]4O[C@H](CO)[C@@H](O)[C@H](O)[C@H]4O)c(O)c3)cc(O)c(O)c2O)c1` [Compound 1, chestanin], for which the concentration for half-maximal inhibition (IC50) against BChE (equine serum) was > 40 µM; in [6] it was 37 ± 3 µM; at Recombinant human MAO-A it was > 40 µM; on MAO-B [7] it was > 40 µM. For the same compound, the remaining activity at 10 µM on BChE (equine serum) was 96.2 ± 3.9%; in [6], 72.5 ± 2.1%; on Recombinant human MAO-A, 91.7 ± 1.6%; on MAO-B [7] it was 67.2 ± 8.1%; on BACE-1, 78.9 ± 0.3%. In data set [6], the SI is > 1.1.

For `O=c1c(O)c(-c2ccc(O)c(O)c2)oc2cc(O)cc(O)c12` [quercetin], the 50% inhibitory concentration (IC50) in the data set with AChE [1] (ref 50) was […].

Consider `COc1cc2c(=O)oc3c(OC)c(O[C@@H]4O[C@H](CO)[C@@H](O)[C@H](O)[C@H]4O)cc4c(=O)oc(c1OC)c2c34` [Compound 2, 4′-O-(β-D-glucopyranosyl)-3,3′,4-tri-O-methylellagic acid], for which the IC50 is > 40 µM against BChE (equine serum), 46.4 ± 2.7 µM in data set [6], > 40 µM on Recombinant human MAO-A and > 40 µM on MAO-B [7]. For the same compound, the remaining activity at 10 µM came out at 90.8 ± 4.2% at BChE (equine serum); 70.5 ± 5% in data set [6]; 91.3 ± 7.9% on Recombinant human MAO-A; 60.9 ± 5.2% on MAO-B [7]; 91.9 ± 1% at BACE-1. Further, in data set [6], the SI is on record as > 0.9.

Regarding `COc1c(O)cc2oc3cc(O)c(CC=C(C)C)c(O)c3c(=O)c2c1CC=C(C)C` [α-mangostin], the IC50 was 2.48 µM in the data set on AChE [1] (ref 53) and 6.3 µM with AChE [1] (ref 54).

With `O=C(O[C@@H]1Cc2c(O)cc(O)cc2O[C@@H]1c1cc(O)c(O)c(O)c1)c1cc(O)c(O)c(O)c1` [epigallocatechin gallate], the IC50 with AChE [1] (ref 52) was 14.8 µM.

In the case of `COc1cc2oc(-c3ccc(O)cc3)cc(=O)c2c(O)c1[C@@H]1O[C@H](CO)[C@@H](O)[C@H](O)[C@H]1O` [swertisin, isovitexin-7-O-methyl ether], in the data set with AChE [1] (converted from µg/mL), the IC50 is 71.9 µM. Moreover, the “IC50 AChE” value with AChE [1] (ref 49) is 32.09 mg/L (≈ 71.9 µM).

On to `O=C(/C=C/c1ccc(O)cc1)OC[C@H]1O[C@@H](Oc2c(-c3ccc(O)cc3)oc3cc(O)cc(O)c3c2=O)[C@H](O)[C@@H](O)[C@@H]1O` [tiliroside], for which the concentration for half-maximal inhibition (IC50) in the data set with AChE [1] (ref 50) was 23.5 µM.
